In one assay the target is human α4β2 (LS) (Homo sapiens, UniProt P17787+P43681). Briefly: Calcium flux inhibition, SH-EP1-human α4β2 maintained at 37° C. (LS). It is filed as cell-based. Particulars: for Emax: read-out: Human α4β2 Ca Flux Imax [37C/HS]. The procedure: (§1) SH-EP1-human α4β2 (Eaton et al., 2003), cell lines were obtained from Dr. Ron Lukas (Barrow Neurological Institute). Cells were maintained in proliferative growth phase in Dulbecco's modified Eagle's medium (Invitrogen, Carlsbad, Calif.) with 10% horse serum (Invitrogen), 5% fetal bovine serum (HyClone, Logan Utah), 1 mM sodium pyruvate, 4 mM L-glutamine. For maintenance of stable transfectants, the α4β2 cell media was supplemented with 0.25 mg/mL zeocin and 0.13 mg/mL hygromycin B.
Forty-eight hours prior to each experiment, cells were plated in 96 well black-walled, clear bottom plates (Corning, Corning, N.Y.) at 60-100,000 cells/well. On the day of the experiment, growth medium was gently removed, 200 μL 1×FLIPR Calcium 4 Assay reagent (Molecular Devices, Sunnyvale, Calif.) in assay buffer (20 mM HEPES, 7 mM TRIS base, 4 mM CaCl2, 5 mM D-glucose, 0.8 mM MgSO4, 5 mM KCl, 0.8 mM MgCl2, 120 mM N-methyl D-glucamine, 20 mM NaCl, pH 7.4 for SH-EP1-human α4β2 cells or 10 mM HEPES, 2.5 mM CaCl2, 5.6 mM D-glucose, 0.8 mM MgSO4, 5.3 mM KCl, 138 mM NaCl, pH 7.4 with TRIS-base for all other cell lines) was added to each well and plates were incubated at 37° C. for 1 hour (29° C. for the 29° C.-treated SH-EP1-human α4β2 cells). For inhibition studies, competitor compound (10 pM-10 μM) was added at the time of dye addition. The plates were removed from the incubator and allowed to equilibrate to room temperature. Plates were transferred to a FLIPR Tetra fluorometric imaging plate reader (Molecular Devices) for addition of compound and monitoring of fluorescence (excitation 485 nm, emission 525 nm). The amount of calcium flux was compared to both a positive (nicotine) and negative control (buffer alone). The positive control was defined as 100% response and the results of the test compounds were expressed as a percentage of the positive control. […] (LS), and 20 μM for SH-SY5Y cells or CHO_human α3β4.
A general note: Calcium flux is commonly read through the fluorescence of an indicator in the cells.

The next assay deals with human α4β2 (HS) (Homo sapiens, UniProt P17787+P43681). Briefly: Calcium flux inhibition, SH-EP1-human α4β2 treated at 29° C. (HS). To be noted: for Human α4β2 Ca Flux Imax [29C/HS]: 29° C.-treated cells (HS), nicotine 1 μM. It is filed as cell-based. As for the experimental part:
as §1
(§2) Forty-eight hours prior to each experiment, cells were plated in 96 well black-walled, clear bottom plates (Corning, Corning, N.Y.) at 60-100,000 cells/well. On the day of the experiment, growth medium was gently removed, 200 μL 1×FLIPR Calcium 4 Assay reagent (Molecular Devices, Sunnyvale, Calif.) in assay buffer (20 mM HEPES, 7 mM TRIS base, 4 mM CaCl2, 5 mM D-glucose, 0.8 mM MgSO4, 5 mM KCl, 0.8 mM MgCl2, 120 mM N-methyl D-glucamine, 20 mM NaCl, pH 7.4 for SH-EP1-human α4β2 cells or 10 mM HEPES, 2.5 mM CaCl2, 5.6 mM D-glucose, 0.8 mM MgSO4, 5.3 mM KCl, 138 mM NaCl, pH 7.4 with TRIS-base for all other cell lines) was added to each well and plates were incubated at 37° C. for 1 hour (29° C. for the 29° C.-treated SH-EP1-human α4β2 cells). For inhibition studies, competitor compound (10 pM-10 μM) was added at the time of dye addition. The plates were removed from the incubator and allowed to equilibrate to room temperature. Plates were transferred to a FLIPR Tetra fluorometric imaging plate reader (Molecular Devices) for addition of compound and monitoring of fluorescence (excitation 485 nm, emission 525 nm). The amount of calcium flux was compared to both a positive (nicotine) and negative control (buffer alone). The positive control was defined as 100% response and the results of the test compounds were expressed as a percentage of the positive control. For inhibition studies, the agonist nicotine was used at concentrations of 1 μM for SH-EP1-human α4β2 treated at 29° C. (HS), 10 μM for SH-EP1-human α4β2 maintained at 37° C. (LS), and 20 μM for SH-SY5Y cells or CHO_human α3β4.

Assay [1] concerns the target T1, Human Ganglion (SH-SY5Y cells) (Homo sapiens, UniProt P30532+P30926+P32297).
T1 construct: endogenous in cells; host or cells: SH-SY5Y human neuroblastoma cells
Briefly: Calcium flux inhibition, human ganglion (SH-SY5Y cells). The assay is classed as cell-based. Particulars: SH-SY5Y cells, nicotine 20 μM; for IC50: read-out: Human Ganglion Ca Flux IC50. As for the experimental part:
as §2

The target in a further assay is Nicotinic, human α4β2 (Homo sapiens, UniProt P17787+P43681). Briefly: Competition binding, human α4β2 nicotinic receptor ([3H]nicotine). The procedure:
as §1
(§3) Cells were harvested in ice-cold PBS, pH 7.4, then homogenized with a Polytron (Kinematica GmbH, Switzerland). Homogenates were centrifuged at 40,000 g for 20 minutes (4° C.). The pellet was re-suspended in PBS and protein concentration determined using the Pierce BCA Protein Assay kit (Pierce Biotechnology, Rockford, Ill.).
(§4) Binding to nicotinic receptors was assayed on membranes using standard methods adapted from published procedures (Lippiello and Fernandes 1986; Davies et al., 1999). In brief, membranes were reconstituted from frozen stocks and incubated for 2 h on ice in 150 μl assay buffer (50 mM Tris, 154 mM NaCl, pH 7.4) in the presence of competitor compound (0.001 nM to 100 μM) and radioligand. [^3H]-nicotine (L-(−)-[N-methyl-^3H]-nicotine, 69.5 Ci/mmol, Perkin-Elmer Life Sciences, Waltham, Mass.) was used for human α4β2 binding studies. [^3H]-epibatidine (52 Ci/mmol, Perkin-Elmer Life Sciences) was used for binding studies at the other nicotinic receptor subtypes. Incubation was terminated by rapid filtration on a multimanifold tissue harvester (Brandel, Gaithersburg, Md.) using GF/B filters presoaked in 0.33% polyethyleneimine (w/v) to reduce non-specific binding. Filters were washed 3 times with ice-cold assay buffer and the retained radioactivity was determined by liquid scintillation counting.
(§5) Binding data were expressed as percent total control binding. Replicates for each point were averaged and plotted against the log of drug concentration. The IC50 (concentration of the compound that produces 50% inhibition of binding) was determined by least squares non-linear regression using GraphPad Prism software (GraphPAD, San Diego, Calif.). Ki was calculated using the Cheng-Prusoff equation (Cheng and Prusoff, 1973).

In a further assay the target is T2, Nicotinic, human α3β4 (Homo sapiens, UniProt P30926+P32297).
T2 construct: host or cells: CHO
Briefly: Competition binding, human α3β4 nicotinic receptor (CHO human α3β4 membranes). As for the experimental part: (§6) CHO-human α3β4 cells (obtained from ChanTest, Cleveland, Ohio, catalog #CT6021) were maintained in proliferative growth phase in Ham's F12 (VWR) with 10% fetal bovine serum (Invitrogen), 0.25 mg/mL geneticin; 0.4 mg/ml zeocin. The amino acid sequences encoded by the transfected cDNA constructs used to generate the CHO-human α3β4 cells are identical to the translated sequences for GenBank accession numbers NM_000743.2 and NM_000750.3, respectively.
as §3, §4, §5

The target in the next assay is T3, Nicotinic, human α3β4α5 (Homo sapiens, UniProt P30532+P30926+P32297).
T3 construct: endogenous in cells; host or cells: SH-SY5Y human neuroblastoma cells
Briefly: Competition binding, human ganglion nicotinic receptor (SH-SY5Y membranes). As for the experimental part: as §3, §4, §5

Another assay deals with T4, human α3β4 (Homo sapiens, UniProt P30926+P32297).
T4 construct: host or cells: CHO
Briefly: Calcium flux inhibition, CHO-human α3β4 cells. To be noted: for Human CHO α3β4 Ca Flux Imax: nicotine 20 μM. The assay is classed as cell-based. As for the experimental part:
as §6, §2

For a further assay, the target named is T5, Nicotinic, human α7 (Homo sapiens, UniProt P36544).
T5 construct: host or cells: CHO
Briefly: Competition binding, human α7 nicotinic receptor (CHO human α7 membranes). Particulars: [3H]TC-12018 0.5 nM. As for the experimental part: CHO-human α7 cells (obtained from ChanTest, Cleveland, Ohio, catalog #CT6201) were maintained in proliferative growth phase in Ham's F12 (VWR) with 10% fetal bovine serum (Invitrogen), 0.25 mg/mL geneticin; 0.4 mg/ml zeocin. The amino acid sequences encoded by the transfected cDNA constructs used to generate the CHO-human α7 cells are identical to the translated sequences for GenBank accession numbers NM_000746.4 (α7) and NM_024557.4 (hRIC3).
as §3
Binding to nicotinic receptors was assayed on membranes using standard methods adapted from published procedures (Lippiello and Fernandes 1986; Davies et al., 1999). […] Filters were washed 3 times with ice-cold assay buffer and the retained radioactivity was determined by liquid scintillation counting.
Binding data were expressed as percent total control binding. […] Ki was calculated using the Cheng-Prusoff equation (Cheng and Prusoff, 1973).

As for `CCCC12CCCC1(NC)C1CCC2C1` (stereo not shown), the IC50 worked out at 170 nM at human α4β2 (LS), 210 nM at human α4β2 (HS), 30 nM in assay [1] and 130 nM on human α3β4. Also, at human α4β2 (LS), the Emax was 96%. For the same compound, the “Human α4β2 Ca Flux Imax [29C/HS]” value on human α4β2 (HS) is 100 % inh. Also, the “Human Ganglion Ca Flux Imax” value in assay [1] came to 98 % inh. In addition, the Ki at Nicotinic, human α4β2 was 29000 nM; on Nicotinic, human α3β4 it was 73000 nM; on Nicotinic, human α3β4α5 it was 52000 nM. In addition, the “Human CHO α3β4 Ca Flux Imax” value on human α3β4 was determined as 96 % inh.

As for `CN[C@@]12CCC[C@@H]1[C@H]1CC[C@@H]2C1`, the IC50 stood at 380 nM at human α4β2 (LS), 380 nM on human α4β2 (HS), 490 nM in assay [1] and 660 nM on human α3β4. The Emax at human α4β2 (LS) amounted to 96%. Also, the “Human α4β2 Ca Flux Imax [29C/HS]” value at human α4β2 (HS) worked out at 97 % inh. Moreover, the “Human Ganglion Ca Flux Imax” value in assay [1] amounted to 95 % inh. Besides, the Ki came to 51000 nM at Nicotinic, human α4β2; 80000 nM at Nicotinic, human α3β4; 70000 nM at Nicotinic, human α3β4α5. Also, on human α3β4, the “Human CHO α3β4 Ca Flux Imax” value came to 97 % inh.

Turning to `CC[C@@]12CCC[C@]1(NC)[C@H]1CC[C@@H]2C1`, the half-maximal inhibitory concentration (IC50) on human α4β2 (LS) amounted to 5000 nM; at human α4β2 (HS), 600 nM; at human α3β4 it was 170 nM. Further, the Emax on human α4β2 (LS) amounted to 93%. The “Human α4β2 Ca Flux Imax [29C/HS]” value at human α4β2 (HS) is 98 % inh. In addition, the Ki was 79000 nM at Nicotinic, human α7; 26000 nM at Nicotinic, human α4β2; 56000 nM on Nicotinic, human α3β4. For the same compound, on human α3β4, the “Human CHO α3β4 Ca Flux Imax” value came out at 97 % inh.

As a reminder, the IC50 is the midpoint of a concentration-inhibition curve. The term Ki denotes the equilibrium dissociation constant of an inhibitor or competing ligand from its target.
